Data on 22 compounds can be found in patent EP4417607A1, “HETEROCYCLIC COMPOUND AS SOS1 INHIBITOR AND USES THEREOF” (Nanjing Zaiming Pharmaceutical Co., Ltd., priority 2021, dated 2023).

The structures appear in SMILES notation. pIC50: −log10 of the molar value.

The subject of this assay is p-ERK pathway in H358 cells. The assay can be described thus: p-ERK pathway inhibition in H358 cells (Advanced phospho-ERK (Thr202/Tyr204) cellular kit, HTRF). Format: cell-based. The following applies: Homo sapiens, NCI-H358, 1 h compound incubation. The method, then: The effect of the compounds of the present invention on H358 cell p-ERK pathway was assessed by Advanced phospho-ERK (Thr202/Tyr204) cellular kit method.
The experimental procedures were summarized as follows: H358 cells (ATCC, CRL-5807) were cultured in RPMI1640 (ThermoFisher, A1049101) complete medium containing 10% FBS (Gibco, 10100147) and 100 U/mL penicillin-streptomycin mixed solution (Gibco, 15140163). When the coverage of the cells in the culture vessel reached 80-90%, the cells were pipetted and seeded in a 96-well plate (Corning, 3599) at 50000 cells/well (90 µL RPMI1640 complete medium), and the plate was left to stand for 5 min, cultured in an incubator at 37 °C with 5% CO2 for 6 h, replaced with a serum-free RPMI1640, and starved overnight.
After incubation overnight, 10 µL of a diluted test compound was added to each well using a multi-channel pipette, and the 96-well plate was cultured in an incubator at 37 °C with 5% CO2 for 1 h. The supernatant was poured. The cells were washed once with PBS. 50 µL of a lysis buffer (Advanced phospho-ERK (Thr202/Tyr204) cellular kit, 64AERPEH) was added to each well. The plate was shaken at room temperature at 450 rpm for 1 h. After the cells were completely lysed, 16 µL of the supernatant was added to a 384-well plate (PE, 6007299), mixed energy donor Eu and energy acceptor D2 (D2/Eu = 1:1) were added, and the plate was incubated at room temperature for 4 h. HTRF on the microplate reader was selected for plate reading, Ratio = Signal 665 nm/Signal 620 nm × 10^4. In this experiment, the cell-free group (replaced with 1640 medium) was used as the 100% inhibition group, and the compound-free group in which the cell was added was used as the 0% inhibition group.
The inhibition percentage of H358 cell p-ERK pathway by the compounds of the present invention could be calculated by the following formula: [formula]
IC50 values of the compounds were calculated from 8 concentration points using XLfit (ID Business Solutions Ltd., UK) software by the following formula: Y = Bottom + (Top−Bottom)/(1+10^(∧)((logIC50−X)×slopefactor)) [formula]
Y is the inhibition percentage, X is the logarithmic value of the concentration of the test compound, Bottom is the minimum inhibition percentage, Top is the maximum inhibition percentage, and slope factor is the slope coefficient of the curve. The default fitted curve was used to fit the slope of the S-shaped curve to determine the IC50 value. Table 2. Results of p-ERK inhibition test by the compounds of the present invention
For orientation: In TR-FRET formats the signal depends on donor and acceptor labels being close together.
`Cc1nc(N[C@H](C)c2cccc(C(F)F)c2F)c2cn(C3(CF)CC3)c(=O)c(C(F)(F)F)c2n1` [Example 2, (R)-4-((1-(3-(difluoromethyl)-2-fluorophenyl)ethyl)amino)-6-(1-(fluoromethyl)cyclopropyl)-2-methyl-8-(trifluoromethyl)pyrido[4,3-d]pyrimidine-7(6H)-one] had a negative logarithm of the IC50 (pIC50) of 6.90.

On to `COc1c(=O)n(C2(CF)CCN(C(C)=O)C2)cc2c(N[C@H](C)c3cccc(C(F)F)c3F)nc(C)nc12` (stereo partly drawn) [Example 8, 6-(1-acetyl-3-(fluoromethyl)pyrrolidin-3-yl)-4-(((R)-1-(3-(difluoromethyl)-2-fluorophenyl)ethyl)amino)-8-methoxy-2-methylpyrido[4,3-d]pyrimidine-7(6H)-one], for which the pIC50 is 7.03.

`COc1c(=O)n(C2(CF)CCN(C(C)=O)C2)cc2c(N[C@H](C)c3cccc(C#N)c3C)nc(C)nc12` (stereo partly drawn) [Example 17, 3-((1R)-1-((6-(1-acetyl-3-(fluoromethyl)pyrrolidin-3-yl)-8-methoxy-2-methyl-7-oxo-6,7-dihydropyrido[4,3-d]pyrimidin-4-yl)amino)ethyl)-2-methylbenzonitrile] gave a pIC50 of 7.47. This pIC50 is 0.44 log units higher than that of the compound before.

Take `Cc1nc(N[C@H](C)c2cccc(S(F)(F)(F)(F)F)c2)c2cn(N3CCOCC3)c(=O)cc2n1` [Example 18, (R)-2-methyl-6-morpholine-4-((1-(3-(pentafluoro-λ^6-sulfanyl)phenyl)ethyl)amino) pyrido[4,3-d]pyrimidine-7(6H)-one]: the negative-log IC50 (pIC50) is 7.10.

`COc1c(=O)n(N2CCOCC2)cc2c(N[C@H](C)c3cccc([N+](=O)[O-])c3C)nc(C)nc12` [Example 24, (R)-4-((1-(2-methyl-3-nitrophenyl)ethyl)amino)-8-methoxy-2-methyl-6-morpholinepyrido[4,3-d]pyrimidine-7(6H)-one] gave a pIC50 of 7.15.

With `Cc1nc(N[C@H](C)c2cccc(C(F)F)c2F)c2cn(C3(CF)CC3)c(=O)c(N3C4CCC3COC4)c2n1` [Example 44, 8-(3-oxa-8-azabicyclo[3.2.1]oct-8-yl)-4-(((R)-1-(3-(difluoromethyl)-2-fluorophenyl)ethyl)amino)-6-(1-(fluoromethyl)cyclopropyl)-2-methylpyrido[4,3-d]pyrimidine-7(6H)-one], the pIC50 was 6.88.

Regarding `Cc1nc(N[C@H](C)c2cccc(C(F)F)c2F)c2cn(C3(CF)CC3)c(=O)c(N3C[C@H]4C[C@@H]3CO4)c2n1` [Example 53, 8-((1R,4R)-2-oxa-5-azabicyclo[2.2.1]heptan-5-yl)-4-(((R)-1-(3-(difluoromethyl)-2-fluorophenyl)ethyl)amino)-6-(1-(fluoromethyl)cyclopropyl)-2-methylpyrido[4,3-d]pyrimidine-7(6H)-one], the negative-log IC50 (pIC50) is 6.75.

On to `Cc1nc(N[C@H](C)c2cccc(C(F)F)c2F)c2cn(C3(CF)CC3)c(=O)c(N3C[C@H]4CC[C@@H](C3)O4)c2n1` [Example 54, 8-((1R,5S)-8-oxa-3-azabicyclo[3.2.1]octan-3-yl)-4-(((R)-1-(3-(difluoromethyl)-2-fluorophenyl)ethyl)amino)-6-(1-(fluoromethyl)cyclopropyl)-2-methylpyrido[4,3-d]pyrimidine-7(6H)-one], for which the pIC50 is 6.91.

Turning to `Cc1nc(N[C@H](C)c2cccc(C(F)F)c2F)c2cn(C3(CF)CC3)c(=O)c(N3CC(C)(C#N)C3)c2n1` [Example 75, (R)-1-(4-((1-(3-(difluoromethyl)-2-fluorophenyl)ethyl)amino)-6-(1-(fluoromethyl)cyclopropyl)-2-methyl-7-oxo-6,7-dihydropyrido[4,3-d]pyrimidin-8-yl)-3-methylazetidine-3-carbonitrile], the pIC50 is 6.77.

Compound `CNc1c(=O)n(C2(CF)CC2)cc2c(N[C@H](C)c3cccc(C(F)F)c3F)nc(C)nc12` [Example 77] gave a pIC50 of 7.11. This pIC50 is 0.34 log units higher than that of the compound before.

`Cc1nc(N[C@H](C)c2cccc(C(F)F)c2F)c2cn(N3CCOCC3)c(=O)c(N3CCO[C@@H](C)C3)c2n1` [Example 79] had a pIC50 of 7.10. The pIC50 values of the last two compounds are within 0.2 log units of each other.

`Cc1nc(N[C@H](C)c2cccc(S(F)(F)(F)(F)F)c2)c2cn(N3CCOCC3)c(=O)c(N3CCOCC3)c2n1` [Example 81, (R)-2-methyl-6,8-dimorpholine-4-((1-(3-(pentafluoro-λ^6-sulfanyl)phenyl)ethyl)amino)pyrido[4,3-d]pyrimidine-7(6H)-one] had a pIC50 of 7.11.

Take `Cc1nc(N[C@H](C)c2cccc(C(F)F)c2F)c2cn(C3(CF)CC3)c(=O)c(Nc3cnn(C)c3)c2n1` [Example 93, (R)-4-((1-(3-(difluoromethyl)-2-fluorophenyl)ethyl)amino)-6-(1-(fluoromethyl)cyclopropyl)-2-methyl-8-((1-methyl-1H-pyrazol-4-yl)amino)pyrido[4,3-d]pyrimidine-7(6H)-one]: the pIC50 was 7.04. The pIC50 values of the last two compounds are within 0.2 log units of each other.

With `Cc1nc(N[C@H](C)c2cccc(C#N)c2C)c2cn(N3CCOCC3)c(=O)c(N3CCN4C(=O)OC[C@H]4C3)c2n1` [Example 99, 2-methyl-3-((R)-1-((2-methyl-6-morpholine-7-oxo-8-((R)-3-oxotetrahydro-3H-oxazolo[3,4-a]pyrazin-7(1H)-yl)-6,7-dihydropyrido[4,3-d]pyrimidin-4-yl)amino)ethyl)benzonitrile], the negative-log IC50 (pIC50) is 6.95.

For the compound `Cc1nc(N[C@H](C)c2cccc(C(F)F)c2F)c2cn(C3(CF)CC3)c(=O)c(-n3cc(C#N)cn3)c2n1` [Example 101, (R)-1-(4-((1-(3-(difluoromethyl)-2-fluorophenyl)ethyl)amino)-6-(1-(fluoromethyl)cyclopropyl)-2-methyl-7-oxo-6,7-dihydropyrido[4,3-d]pyrimidin-8-yl)-1H-pyrazole-4-carbonitrile], the pIC50 was 7.30.

`Cc1nc(N[C@H](C)c2cccc(C(F)F)c2F)c2cn(C3(CF)CC3)c(=O)c(NC[C@@H]3CCO3)c2n1` [Example 105, 4-(((R)-1-(3-(difluoromethyl)-2-fluorophenyl)ethyl)amino)-6-(1-(fluoromethyl)cyclopropyl)-2-methyl-8-((((S)-oxetan-2-yl)methyl)amino)pyrido[4,3-d]pyrimidine-7(6H)-one] showed a pIC50 of 7.01.

`Cc1nc(N[C@H](C)c2cccc(C(F)F)c2F)c2cn(C3(CF)CC3)c(=O)c(N3Cc4cn(C5CC5)nc4C3)c2n1` [Example 106] showed a pIC50 of 7.32.

On to `Cc1nc(N[C@H](C)c2cccc(C(F)F)c2F)c2cn(C3(CF)CC3)c(=O)c(N3C[C@@H](F)[C@@H](F)C3)c2n1` [Example 107, 4-(((R)-1-(3-(difluoromethyl)-2-fluorophenyl)ethyl)amino)-8-((3S,4R)-3,4-difluoropyrrolidin-1-yl)-6-(1-(fluoromethyl)cyclopropyl)-2-methylpyrido[4,3-d]pyrimidine-7(6H)-one], for which the pIC50 was 7.33.

`Cc1nc(N[C@H](C)c2cccc(C(F)F)c2F)c2cn(C3(CF)CC3)c(=O)c(N3CC(S(C)(=O)=O)C3)c2n1` [Example 111, (R)-4-((1-(3-(difluoromethyl)-2-fluorophenyl)ethyl)amino)-6-(1-(fluoromethyl)cyclorol-2-methyl-8-3-methylsulfonylazetidin-1-yl)pyrido[4,3-d]pyrimidine-7(6H)-one]: the pIC50 is 6.96.

For the compound `Cc1nc(N[C@H](C)c2cccc(C(F)F)c2F)c2cn(N3CCOCC3)c(=O)c(OCC3(C)COC3)c2n1` [Example 121, (R)-4-((1-(3-(difluoromethyl)-2-fluorophenyl)ethyl)amino)-2-methyl-8-((3-methloxetan-3-yl)methoxy)-6-morpholinylpyrido[4,3-d]pyrimidine-7(6H)-one], the negative-log IC50 (pIC50) was 6.97.

In the case of `Cc1nc(N[C@H](C)c2cccc(C(F)F)c2F)c2cn(C3(CF)CC3)c(=O)c(-c3c(C)noc3C)c2n1` [Example 123, (R)-4-((1-(3-(difluoromethyl)-2-fluorophenyl)ethyl)amino)-8-(3,5-dimethylisoxazol-4-yl)-6-(1-(fluoromethyl)cyclopropyl)-2-methylpyrido[4,3-d]pyrimidine-7(6H)-one], the negative logarithm of the IC50 (pIC50) was 6.95.

Compound `Cc1nc(N[C@H](C)c2cccc(C(F)F)c2F)c2cn(C3(CF)CC3)c(=O)c(-c3cnc4cnn(C)c4c3)c2n1` [Example 129, (R)-4-((1-(3-(difluoromethyl)-2-fluorophenyl)ethyl)amino)-6-(1-(fluoromethyl)cyclopropyl)-2-methyl-8-(1-methyl-1H-pyrazolo[4,3-b]pyridin-6-yl)pyrido[4,3-d]pyrimidine-7(6H)-one] showed a pIC50 of 6.90. The pIC50 values of the last two compounds are within 0.2 log units of each other.

For orientation: pIC50 means the IC50 on a negative log10 scale, so that one unit is a factor of ten. Low values mean a large IC50, high ones a small IC50.
